In patent publication US20200268728A1, “DRUG TARGETING CANCER STEM CELL” (Sumitomo Dainippon Pharma Co., Ltd., priority 2016, published 2020):
Counter-ions that a name gives are not always drawn. Like-named read-outs stand apart in the source and are kept apart here.

Assays:
HCT-116 cells = assay: Anti-tumor effect to HCT-116 tumor-bearing mouse (Test Example 2); assay type: in vivo; details: oral, read-out: T/C (%); for response vs control in vivo at 150 mg/kg: dosage 150 mg/kg
From the text: The present compound can be used to evaluate the anti-tumor effect thereof. A 4 to 7-week-old nude mouse (BALB/cAnNCrj-nu/nu, female, CHARLES RIVER LABORATORIES JAPAN, INC.) received intradermal transplantation of HCT-116 cells (ATCC) in an amount of 3×10^6 cells/mouse around the ventral portion. The engraftment of HCT-116 cells was observed 5 to 14 days after the transplantation, and then each compound suspended in a solvent such as 0.5% methylcellulose solution was orally administrated to the mouse in a dose of 1 to 200 mg/kg one to twice daily. The tumor volume was measured over time after the administration to evaluate the effect for reducing the tumor volume by the administration of each compound. The tumor volume can be calculated from the minor axis and the major axis of the tumor measured with a digital caliper (Mitutoyo) according to the following formula:
Tumor volume [mm^3]=0.5×minor axis [mm]×(major axis [mm])^2
The tumor volume in control administration group treated with only a solvent such as 0.5% methylcellulose solution was compared with that of the present compound administration group, and T/C value was calculated according the following formula to evaluate the anti-tumor effect of the present compound.
T/C(%)=(the tumor volume at the end of administration in the present compound administration group−the tumor volume at the start of administration in the present compound administration group)/(the tumor volume at the end of administration in the control administration group−the tumor volume at the start of administration in the control administration group)×100
The T/C values (%) of the present compound on each dosage and administration period in the HCT-116 tumor-bearing mouse are shown below.

HCT116 cells = assay: Combination with Example 24, inhibitory effect on sphere-forming ability (Test Example 6); assay type: cell-based, human; details: HCT116 sphere culture, test compound combined with Example 24 (2-1000 nmol/L), 4 days
H460 cells = assay: as above; assay type: cell-based, human; details: H460 sphere culture, test compound combined with Example 24 (2-1000 nmol/L), 4 days
Procedure: (§1) After the culture, CellTiterGlo (Promega) was added into all of the wells, and the plate is allowed to stand at room temperature for 10 minutes to measure the intensity of luminescence of each well. […] The formula for calculating the rate is shown below.
(§2) Sphere formation rate (%)=(Lsample)/(Lcontrol)×100
(§3) The value obtained by dividing the sphere formation rate by 100 and subtracting the calculated value from 1 is defined as a sphere formation inhibitory effect. The formula for calculating the effect is shown below.
(§4) Sphere formation inhibitory effect=1−(Sphere formation rate/100)
(§5) Also, the measured cell survival rate of the combination was defined as (Ld).
(§6) The minimum value thereof (sCI) was used as the criteria for screening.

LNCap cells = assay: as above; assay type: cell-based; details: LNCap sphere culture, test compound combined with Example 24 (2-1000 nmol/L), 4 days
Procedure: as §1, §2, §3, §4, §5, §6

[1] = HCT-116, 456 h, administration period 19 day

SMILES: COc1ccc(C(=O)Nc2cn(Cc3cccc(Cl)c3)cn2)cc1OC [Example 10-2, N-[1-(3-Chlorobenzyl)-1H-imidazol-4-yl]-3,4-dimethoxybenzamide hydrochloride]
- response vs control in vivo at 150 mg/kg (HCT-116 cells; [1]): 53%

SMILES: O=C(/C=C/c1cccnc1)Nc1cn(Cc2cccc(Cl)c2)cn1 [Example 9-2, (2E)-N-(1-(3-Chlorobenzyl)-1H-imidazol-4-yl)-3-(pyridin-3-yl)prop-2-enamide dihydrochloride]
- response vs control in vivo at 150 mg/kg (HCT-116 cells; HCT-116, 384 h, administration period 16 day): 65%

SMILES: COC1=CC(c2cc3ccccc3[nH]2)=N/C1=C\c1[nH]c(C)cc1C [Obatoclax]
- sCI, minimum (Ld)/(Lc) (HCT116 cells): 0.103
- sCI, minimum (Ld)/(Lc) (H460 cells): 0.061

SMILES: CCCCCCCCc1ccc(CCC(N)(CO)CO)cc1 [Fingolimod]
- sCI, minimum (Ld)/(Lc) (HCT116 cells): 0.013
- sCI, minimum (Ld)/(Lc) (H460 cells): 0.007

SMILES: CC(O)(CS(=O)(=O)c1ccc(F)cc1)C(=O)Nc1ccc(C#N)c(C(F)(F)F)c1 (centres unmarked) [Bicalutamide]
- sCI, minimum (Ld)/(Lc) (LNCap cells): 0.421

SMILES: CN1CCC(CNc2ccc3ncc(-c4cccc(OC(F)(F)F)c4)n3n2)CC1 [SGI-1776]
- sCI, minimum (Ld)/(Lc) (HCT116 cells): 0.026

SMILES: CC[C@@H]1C(=O)N(C)c2cnc(Nc3ccc(C(=O)NC4CCN(C)CC4)cc3OC)nc2N1C1CCCC1 [BI 2536]
- sCI, minimum (Ld)/(Lc) (HCT116 cells): 0.623

SMILES: COc1ccc(C(=O)Nc2cn(Cc3ccc(F)c(F)c3)cn2)cc1OC [Example 11-2]
- response vs control in vivo at 150 mg/kg (HCT-116 cells; [1]): 52%

SMILES: CC(C)c1c(C(=O)Nc2ccccc2)c(-c2ccccc2)c(-c2ccc(F)cc2)n1CC[C@@H](O)C[C@@H](O)CC(=O)O [Atorvastatin]
- sCI, minimum (Ld)/(Lc) (HCT116 cells): 0.3

SMILES: CNC(=O)c1ccc(N2C(=S)N(c3ccc(C#N)c(C(F)(F)F)c3)C(=O)C2(C)C)cc1F [Enzalutamide]
- sCI, minimum (Ld)/(Lc) (LNCap cells): 0.826

SMILES: Cc1nc(Nc2ncc(C(=O)Nc3c(C)cccc3Cl)s2)cc(N2CCN(CCO)CC2)n1 [Dasatinib]
- sCI, minimum (Ld)/(Lc) (HCT116 cells): 0.171
- sCI, minimum (Ld)/(Lc) (H460 cells): 0.514

SMILES: COc1ccc(C(=O)Nc2cn(Cc3cc(F)c(F)c(F)c3)cn2)cc1OC [Example 13-2]
- response vs control in vivo at 15 mg/kg (HCT-116 cells; HCT-116, 528 h, dosage 15 mg/kg, administration period 22 day): 72%
- response vs control in vivo at 150 mg/kg (HCT-116 cells; HCT-116, 528 h, administration period 22 day): 45%

SMILES: CC(C)n1c(/C=C/C(O)CC(O)CC(=O)O)c(-c2ccc(F)cc2)c2ccccc21 (centres unmarked) [Fluvastatin]
- sCI, minimum (Ld)/(Lc) (HCT116 cells): 0.163

SMILES: CC(=O)c1cc2c(o1)C(=O)c1ccccc1C2=O [Napabucasin]
- sCI, minimum (Ld)/(Lc) (HCT116 cells): 0.159

SMILES: CS(=O)(=O)CCNCc1ccc(-c2ccc3ncnc(Nc4ccc(OCc5cccc(F)c5)c(Cl)c4)c3c2)o1 [Lapatinib]
- sCI, minimum (Ld)/(Lc) (HCT116 cells): 0.024
- sCI, minimum (Ld)/(Lc) (H460 cells): 0.076

SMILES: COc1ccc(C(=O)Nc2cn(Cc3cc(F)cc(F)c3)cn2)cc1OC [Example 12-2]
- response vs control in vivo at 150 mg/kg (HCT-116 cells; [1]): 84%

SMILES: CCN(CC)CCNC(=O)c1c(C)[nH]c(/C=C2\C(=O)Nc3ccc(-c4csc(-c5ccccc5)n4)cc32)c1C [Amcasertib]
- sCI, minimum (Ld)/(Lc) (HCT116 cells): 0.017

SMILES: CCC(C)(C)C(=O)O[C@H]1C[C@@H](C)C=C2C=C[C@H](C)[C@H](CC[C@@H]3C[C@@H](O)CC(=O)O3)[C@H]21 [Simvastatin]
- sCI, minimum (Ld)/(Lc) (HCT116 cells): 0.257
